Data as given in ChEMBL document CHEMBL2073867, “cDNA cloning and inducible expression of human multidrug resistance associated protein 3 (MRP3)” (FEBS Lett, 1998).

How the values were obtained:
[1] = biological target: Multidrug resistance associated protein (Homo sapiens) (UniProt Q96QA9); assay: (§1) TP_TRANSPORTER: Northern blot from HepG2 cells; assay type: functional, cell-based
[2] = biological target: Multidrug resistance-associated protein 1 (Homo sapiens, UniProt P33527); assay: as §1; assay type: functional, cell-based
Chain of Multidrug resistance-associated protein 1 (P33527 whole entry): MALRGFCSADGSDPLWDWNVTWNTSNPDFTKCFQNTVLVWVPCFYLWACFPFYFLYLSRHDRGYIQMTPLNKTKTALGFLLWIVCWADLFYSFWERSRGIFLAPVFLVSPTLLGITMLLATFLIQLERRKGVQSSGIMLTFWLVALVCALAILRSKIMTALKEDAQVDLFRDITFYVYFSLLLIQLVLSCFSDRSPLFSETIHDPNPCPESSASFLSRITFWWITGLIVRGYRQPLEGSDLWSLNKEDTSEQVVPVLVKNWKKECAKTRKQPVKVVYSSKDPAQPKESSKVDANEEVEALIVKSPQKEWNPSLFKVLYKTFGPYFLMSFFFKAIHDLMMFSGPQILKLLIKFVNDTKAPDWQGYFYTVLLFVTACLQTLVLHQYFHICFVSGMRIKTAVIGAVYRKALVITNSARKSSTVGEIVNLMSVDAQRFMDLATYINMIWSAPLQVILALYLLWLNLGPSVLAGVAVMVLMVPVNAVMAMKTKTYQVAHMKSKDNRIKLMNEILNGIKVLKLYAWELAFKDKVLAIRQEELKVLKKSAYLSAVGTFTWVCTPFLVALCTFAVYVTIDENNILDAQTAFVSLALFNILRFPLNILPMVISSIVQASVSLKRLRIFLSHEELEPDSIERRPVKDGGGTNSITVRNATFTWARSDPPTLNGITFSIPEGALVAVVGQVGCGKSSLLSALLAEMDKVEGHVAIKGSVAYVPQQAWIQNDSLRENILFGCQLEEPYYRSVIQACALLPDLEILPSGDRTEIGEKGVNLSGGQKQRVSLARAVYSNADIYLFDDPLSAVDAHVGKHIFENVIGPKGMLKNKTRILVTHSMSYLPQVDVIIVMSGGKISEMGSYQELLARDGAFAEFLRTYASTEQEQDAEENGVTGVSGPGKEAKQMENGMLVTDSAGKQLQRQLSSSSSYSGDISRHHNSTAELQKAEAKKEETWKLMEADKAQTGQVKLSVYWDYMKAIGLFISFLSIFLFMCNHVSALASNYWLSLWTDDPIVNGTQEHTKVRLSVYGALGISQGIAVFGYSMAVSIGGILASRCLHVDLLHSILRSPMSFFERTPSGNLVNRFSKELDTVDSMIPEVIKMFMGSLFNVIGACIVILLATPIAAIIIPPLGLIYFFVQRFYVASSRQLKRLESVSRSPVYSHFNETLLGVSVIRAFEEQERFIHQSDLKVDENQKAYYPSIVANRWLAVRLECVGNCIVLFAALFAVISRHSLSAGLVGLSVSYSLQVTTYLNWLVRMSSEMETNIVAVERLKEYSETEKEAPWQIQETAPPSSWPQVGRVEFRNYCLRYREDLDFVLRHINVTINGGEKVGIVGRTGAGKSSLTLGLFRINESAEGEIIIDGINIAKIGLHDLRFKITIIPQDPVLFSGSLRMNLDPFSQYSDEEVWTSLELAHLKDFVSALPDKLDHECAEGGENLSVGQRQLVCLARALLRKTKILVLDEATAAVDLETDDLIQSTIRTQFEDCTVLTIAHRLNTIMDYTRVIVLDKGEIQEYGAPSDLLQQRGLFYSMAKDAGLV

Chain of Multidrug resistance associated protein (Homo sapiens) (Q96QA9 as listed by the source): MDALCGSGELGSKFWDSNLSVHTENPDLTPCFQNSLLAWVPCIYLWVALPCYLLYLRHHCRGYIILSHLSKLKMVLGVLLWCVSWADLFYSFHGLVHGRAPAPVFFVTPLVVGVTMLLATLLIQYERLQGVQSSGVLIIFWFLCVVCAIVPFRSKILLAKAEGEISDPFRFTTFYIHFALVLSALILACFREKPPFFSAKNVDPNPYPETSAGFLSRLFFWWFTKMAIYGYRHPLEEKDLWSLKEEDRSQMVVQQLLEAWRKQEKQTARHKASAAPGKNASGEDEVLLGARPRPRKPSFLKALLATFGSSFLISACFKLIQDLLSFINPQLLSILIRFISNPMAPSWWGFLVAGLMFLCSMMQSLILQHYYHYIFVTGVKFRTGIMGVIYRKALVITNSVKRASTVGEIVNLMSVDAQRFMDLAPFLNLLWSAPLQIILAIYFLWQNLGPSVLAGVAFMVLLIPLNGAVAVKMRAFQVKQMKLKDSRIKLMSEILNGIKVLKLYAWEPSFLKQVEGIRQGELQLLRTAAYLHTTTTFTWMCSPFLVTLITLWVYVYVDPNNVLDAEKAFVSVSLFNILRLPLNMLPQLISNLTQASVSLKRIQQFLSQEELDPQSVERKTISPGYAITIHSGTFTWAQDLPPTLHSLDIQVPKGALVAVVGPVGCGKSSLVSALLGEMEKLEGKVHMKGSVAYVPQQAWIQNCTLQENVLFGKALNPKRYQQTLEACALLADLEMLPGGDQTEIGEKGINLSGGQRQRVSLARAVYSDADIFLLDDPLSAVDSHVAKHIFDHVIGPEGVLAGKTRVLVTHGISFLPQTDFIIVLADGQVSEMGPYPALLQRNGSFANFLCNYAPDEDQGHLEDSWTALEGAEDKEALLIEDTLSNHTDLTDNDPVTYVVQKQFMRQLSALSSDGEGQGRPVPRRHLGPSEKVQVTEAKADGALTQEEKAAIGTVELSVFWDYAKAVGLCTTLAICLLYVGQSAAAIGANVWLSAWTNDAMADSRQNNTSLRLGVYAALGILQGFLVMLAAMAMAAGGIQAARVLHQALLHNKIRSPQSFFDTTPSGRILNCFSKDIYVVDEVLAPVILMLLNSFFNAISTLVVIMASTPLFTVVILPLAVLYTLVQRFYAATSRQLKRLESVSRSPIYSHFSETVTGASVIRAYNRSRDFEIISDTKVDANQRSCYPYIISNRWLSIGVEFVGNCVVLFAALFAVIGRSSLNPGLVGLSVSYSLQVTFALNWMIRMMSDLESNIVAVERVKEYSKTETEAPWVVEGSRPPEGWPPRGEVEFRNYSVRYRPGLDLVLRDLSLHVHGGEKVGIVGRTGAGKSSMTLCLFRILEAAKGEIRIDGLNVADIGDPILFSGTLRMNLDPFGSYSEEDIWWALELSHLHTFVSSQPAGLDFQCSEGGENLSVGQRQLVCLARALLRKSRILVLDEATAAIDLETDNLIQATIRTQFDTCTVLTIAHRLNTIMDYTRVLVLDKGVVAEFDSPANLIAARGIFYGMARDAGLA

For `CCC1(c2ccccc2)C(=O)NC(=O)NC1=O` [PHENOBARBITAL], the Activity [1] was “inducer [+]” and the Activity [2] was “inducer [+]”.
